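A five-concentration, 48-hour dose response in 96-well plates underlies each endpoint, interpolated linearly between surrounding concentrations. The concentration for 50% growth inhibition is given as GI50. At the TGI there is no net growth.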
Key:
Experiment in all cases: DTP human tumour cell line panel, 48 h
[1] = tested on: 786-0 renal
[2] = tested on: A498 renal
[3] = tested on: A549 NSCLC
[4] = tested on: ACHN renal
[5] = tested on: BT-549 breast
[6] = tested on: CAKI-1 renal
[7] = tested on: CCRF-CEM leukemia
[8] = tested on: COLO 205 colon
[9] = tested on: DU-145 prostate
[10] = tested on: EKVX NSCLC
[11] = tested on: HCC-2998 colon
[12] = tested on: HCT-116 colon
[13] = tested on: HCT-15 colon
[14] = tested on: HL-60(TB) leukemia
[15] = tested on: HOP-62 NSCLC
[16] = tested on: HOP-92 NSCLC
[17] = tested on: HS 578T breast
[18] = tested on: HT29 colon
[19] = tested on: IGROV1 ovarian
[20] = tested on: K-562 leukemia
[21] = tested on: KM12 colon
[22] = tested on: LOX IMVI melanoma
[23] = tested on: M14 melanoma
[24] = tested on: MALME-3M melanoma
[25] = tested on: MCF7 breast
[26] = tested on: MDA-MB-231 breast
[27] = tested on: MDA-MB-435
[28] = tested on: MDA-MB-468 breast
[29] = tested on: MOLT-4 leukemia

`C=CC[Se]C(=O)c1cncc(C(=O)[Se]CC=C)c1` gave a GI50 [1] of 1.85 µM, a TGI [1] of 3.27 µM and a GI50 [2] of 3.57 µM. For the same molecule, the TGI [2] was 47.8 µM, the GI50 [3] was 0.434 µM and the TGI [3] was over 100 µM. The GI50 [4] was 3.28 µM, the TGI [4] was 10.3 µM and the GI50 [5] was 1.74 µM. The TGI [5] was 3.21 µM, the GI50 [6] was 1.8 µM and the TGI [6] was 3.46 µM. It also gave a GI50 [7] of 2.42 µM, a TGI [7] of 7.28 µM and a GI50 [8] of 3.65 µM. The TGI [8] was 10.6 µM, the GI50 [9] was 2.22 µM and the TGI [9] was 4.73 µM. It also gave a GI50 [10] of 1.46 µM, a TGI [10] of 3.08 µM and a GI50 [11] of 1.06 µM. For the same molecule, the TGI [11] was 2.26 µM, the GI50 [12] was 1.31 µM and the TGI [12] was 2.82 µM. The GI50 [13] was 1.95 µM, the TGI [13] was 3.81 µM and the GI50 [14] was 2.64 µM. It also gave a TGI [14] of 7.67 µM, a GI50 [15] of 0.525 µM and a TGI [15] of 2.23 µM. It also gave a GI50 [16] of 3.3 µM, a TGI [16] of 8.93 µM and a GI50 [17] of 1.94 µM. The TGI [17] was 6.82 µM, the GI50 [18] was 3.03 µM and the TGI [18] was 10.9 µM. It also gave a GI50 [19] of 0.544 µM, a TGI [19] of 1.8 µM and a GI50 [20] of 3.15 µM. The TGI [20] was 10.7 µM, the GI50 [21] was 1.34 µM and the TGI [21] was 2.76 µM. It also gave a GI50 [22] of 1.74 µM, a TGI [22] of 3.35 µM and a GI50 [23] of 1.81 µM. For the same molecule, the TGI [23] was 3.31 µM, the GI50 [24] was 1.92 µM and the TGI [24] was 4.86 µM. It also gave a GI50 [25] of 2.21 µM, a TGI [25] of 5.55 µM and a GI50 [26] of 1.8 µM. For the same molecule, the TGI [26] was 4 µM, the GI50 [27] was 1.88 µM and the TGI [27] was 3.79 µM. For the same molecule, the GI50 [28] was 1.8 µM, the TGI [28] was 3.54 µM and the GI50 [29] was 2.73 µM. For the same molecule, the TGI [29] was 7.74 µM.
